# Source: PubChem BioAssay AID180 (DTP/NCI, 2004)
# “And” between values parts separate entries of the source, which are not always exact repeats. Identical values can stand only once.
# Test system: BDF1 mice, Adenocarcinoma 755 s.c., tumor weight T/C
# Test: NCI In Vivo Anticancer Drug Screen. Data for tumor model Adenocarcinoma 755 (subcutaneous) in B6D2F1 (BDF1) mice
# Settings: endpoint: mean tumor weight, schedule: Q01DX011 (ip), higher = larger tumour
# Procedure, shortened: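 Readout: T/C, i.e. treated-group measurement over vehicle-control measurement. Endpoint is survival or tumor size in tumor-bearing mice given compound.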
# [1] = dose: 25.0 mg/kg/injection, vehicle: methylcellulose (MC)
# [2] = dose: 15.0 mg/kg/injection, vehicle: methylcellulose (MC)
# [3] = dose: 50.0 mg/kg/injection, vehicle: methylcellulose (MC)
# [4] = dose: 100.0 mg/kg/injection, vehicle: methylcellulose (MC)
# [5] = dose: 12.5 mg/kg/injection, vehicle: methylcellulose (MC)
# [6] = dose: 31.0 mg/kg/injection, vehicle: methylcellulose (MC)
# [7] = dose: 62.0 mg/kg/injection, vehicle: methylcellulose (MC)
# [8] = dose: 0.25 mg/kg/injection, vehicle: carboxymethylcellulose (CMC)
# [9] = dose: 0.5 mg/kg/injection, vehicle: carboxymethylcellulose (CMC)
# [10] = dose: 5.0 mg/kg/injection, vehicle: carboxymethylcellulose (CMC)
smiles,measurement,setting,value
CS(=O)(=O)OCCCCCOS(C)(=O)=O,T/C,"dose: 4.5 mg/kg/injection, vehicle: carboxymethylcellulose (CMC)",110 % of control
same,T/C,"dose: 9.0 mg/kg/injection, vehicle: carboxymethylcellulose (CMC)",86 % of control
same,T/C,"dose: 18.0 mg/kg/injection, vehicle: carboxymethylcellulose (CMC)",67 % of control
same,T/C,[1],11 % of control
same,T/C,"dose: 37.0 mg/kg/injection, vehicle: carboxymethylcellulose (CMC)",3 % of control
O=C(Nc1ccc(C2=NCCN2)cc1)c1cccc(C(=O)Nc2ccc(C3=NCCN3)cc2)c1,T/C,"dose: 9.0 mg/kg/injection, vehicle: water",110 % of control
same,T/C,"dose: 9.4 mg/kg/injection, vehicle: carboxymethylcellulose (CMC)",76 % of control
same,T/C,"dose: 12.0 mg/kg/injection, vehicle: water",165 % of control
same,T/C,[2],86 % of control
same,T/C,"dose: 18.0 mg/kg/injection, vehicle: water",108 % of control
same,T/C,"dose: 18.75 mg/kg/injection, vehicle: carboxymethylcellulose (CMC)",60 % of control
same,T/C,"dose: 25.0 mg/kg/injection, vehicle: water",60 % of control
same,T/C,"dose: 30.0 mg/kg/injection, vehicle: methylcellulose (MC)",64 % of control
same,T/C,"dose: 37.5 mg/kg/injection, vehicle: water",47 % of control
same,T/C,"dose: 50.0 mg/kg/injection, vehicle: water",59 % of control
same,T/C,"dose: 60.0 mg/kg/injection, vehicle: methylcellulose (MC)",67 % of control
same,T/C,"dose: 120.0 mg/kg/injection, vehicle: methylcellulose (MC)",37 % of control
OCCNc1ncnc2c1ncn2C1OC(CO)C(O)C1O (stereo not drawn),T/C,[1],55 % of control
same,T/C,[3],49 % of control
same,T/C,"dose: 75.0 mg/kg/injection, vehicle: methylcellulose (MC)",17 % of control
same,T/C,[4],27 % of control
same,T/C,"dose: 200.0 mg/kg/injection, vehicle: methylcellulose (MC)",7 % of control
CCC1CN1CC1CO1 (stereo not drawn),T/C,"dose: 5.0 mg/kg/injection, vehicle: saline",96 % of control
same,T/C,"dose: 10.0 mg/kg/injection, vehicle: saline",99 % of control
CCCCn1cnc2c(SCc3ccccc3F)nc(N)nc21,T/C,"dose: 6.25 mg/kg/injection, vehicle: methylcellulose (MC)",81 % of control
same,T/C,[5],41 % of control
same,T/C,[1],18 % of control
same,T/C,[3],3 % of control
same,T/C,[4],5 % of control
Cc1ccc(N2CCN(CCCN3CCN(c4ccc(Cl)cc4)CC3)CC2)cc1,T/C,"dose: 0.05 mg/kg/injection, vehicle: carboxymethylcellulose (CMC)",100 % of control
same,T/C,"dose: 0.09 mg/kg/injection, vehicle: carboxymethylcellulose (CMC)",66 % of control
same,T/C,"dose: 0.18 mg/kg/injection, vehicle: carboxymethylcellulose (CMC)",116 % of control
same,T/C,"dose: 0.37 mg/kg/injection, vehicle: carboxymethylcellulose (CMC)",104 % of control
same,T/C,"dose: 0.75 mg/kg/injection, vehicle: methylcellulose (MC)",38 % of control
same,T/C,"dose: 1.5 mg/kg/injection, vehicle: methylcellulose (MC)",37 % of control
same,T/C,[5],76 % of control
same,T/C,[1],48 % of control
same,T/C,[3],42 % of control and 46 % of control
Cc1cnc(SCc2ccccc2Cl)nc1SCc1ccccc1Cl,T/C,[6],81 % of control
same,T/C,[7],65 % of control
CC(C)Cn1cnc2c(=S)nc(N)[nH]c21,T/C,"dose: 3.9 mg/kg/injection, vehicle: methylcellulose (MC)",5 % of control
CCOC(=O)CCCc1ccc(N=NN(C)C(C)CC)cc1 (stereo not drawn),T/C,"dose: 62.0 mg/kg/injection, vehicle: carboxymethylcellulose (CMC)",64 % of control
same,T/C,"dose: 125.0 mg/kg/injection, vehicle: carboxymethylcellulose (CMC)",71 % of control
same,T/C,"dose: 250.0 mg/kg/injection, vehicle: carboxymethylcellulose (CMC)",14 % of control
CCC(=O)OCC1OC(n2cnc3c(=S)nc(N)[nH]c32)C(OC(=O)CC)C1OC(=O)CC (stereo not drawn),T/C,"dose: 1.5 mg/kg/injection, vehicle: carboxymethylcellulose (CMC)",96 % of control
same,T/C,"dose: 3.0 mg/kg/injection, vehicle: carboxymethylcellulose (CMC)",17 % of control
same,T/C,"dose: 6.0 mg/kg/injection, vehicle: carboxymethylcellulose (CMC)",3 % of control
same,T/C,"dose: 12.0 mg/kg/injection, vehicle: carboxymethylcellulose (CMC)",1 % of control
O=C(O)C(O)C(F)(F)F (stereo not drawn),T/C,"dose: 31.0 mg/kg/injection, vehicle: other",89 % of control
same,T/C,"dose: 62.5 mg/kg/injection, vehicle: other",82 % of control
same,T/C,"dose: 125.0 mg/kg/injection, vehicle: other",111 % of control
same,T/C,"dose: 250.0 mg/kg/injection, vehicle: other",46 % of control
CC1=C(O)c2ccccc2C(=O)C1=O,T/C,"dose: 25.0 mg/kg/injection, vehicle: other",106 % of control
same,T/C,"dose: 50.0 mg/kg/injection, vehicle: other",84 % of control
same,T/C,"dose: 100.0 mg/kg/injection, vehicle: other",96 % of control
NC(=O)c1ccc(NC(=O)CCC(=O)Nc2ccc(C(N)=O)cn2)nc1,T/C,[8],83 % of control
same,T/C,[9],93 % of control
same,T/C,"dose: 1.0 mg/kg/injection, vehicle: carboxymethylcellulose (CMC)",80 % of control
same,T/C,"dose: 2.0 mg/kg/injection, vehicle: carboxymethylcellulose (CMC)",33 % of control
same,T/C,"dose: 2.5 mg/kg/injection, vehicle: carboxymethylcellulose (CMC)",16 % of control
same,T/C,[10],7 % of control
CSc1ncnc2c1ncn2CCO,T/C,[1],119 % of control
Cn1c(=O)c2c(nc(N(CCO)CCO)n2C)n(C)c1=O,T/C,"dose: 480.0 mg/kg/injection, vehicle: saline",112 % of control
O=C(O)CC(Nc1ncnc2nc[nH]c12)C(=O)O (stereo not drawn),T/C,"dose: 12.0 mg/kg/injection, vehicle: methylcellulose (MC)",105 % of control
same,T/C,[1],98 % of control
same,T/C,[3],103 % of control
same,T/C,[4],45 % of control
Nc1nc(Cl)cc(Nc2ccccc2Cl)n1,T/C,[2],110 % of control
same,T/C,[6],49 % of control
same,T/C,[7],89 % of control
same,T/C,"dose: 125.0 mg/kg/injection, vehicle: methylcellulose (MC)",89 % of control
same,T/C,"dose: 250.0 mg/kg/injection, vehicle: methylcellulose (MC)",75 % of control
C=CCOP(=O)(N1CC1CC)N1CC1CC (stereo not drawn),T/C,"dose: 17.0 mg/kg/injection, vehicle: saline",69 % of control
same,T/C,"dose: 33.0 mg/kg/injection, vehicle: saline",50 % of control
same,T/C,"dose: 66.0 mg/kg/injection, vehicle: saline",18 % of control
NC(=O)c1cn(C2OC(CO)C(O)C2O)c2ncnc(N)c12 (stereo not drawn),T/C,"dose: 0.12 mg/kg/injection, vehicle: carboxymethylcellulose (CMC)",71 % of control
same,T/C,[8],54 % of control
same,T/C,[9],51 % of control
Cc1ccc(S(=O)(=O)OCC2OC(n3cnc4c(=O)[nH]c(N)nc43)C(O)C2O)cc1 (stereo not drawn),T/C,[10],108 % of control
same,T/C,"dose: 30.0 mg/kg/injection, vehicle: carboxymethylcellulose (CMC)",97 % of control
same,T/C,"dose: 60.0 mg/kg/injection, vehicle: carboxymethylcellulose (CMC)",100 % of control
same,T/C,"dose: 120.0 mg/kg/injection, vehicle: carboxymethylcellulose (CMC)",98 % of control
same,T/C,"dose: 240.0 mg/kg/injection, vehicle: carboxymethylcellulose (CMC)",62 % of control
